# In patent publication US11655253B2, “CBP/catenin signaling pathway inhibitors and uses thereof” (3+2 Pharma, LLC, priority 2020, dated 2023):
# Entries after “also recorded” stand apart in the source; their conditions may differ.
# Key:
# β-catenin binding to CBP = target: T1, β-catenin binding to CBP (Homo sapiens, UniProt Q92793); assay: Co-immunoprecipitation assay in SW480 cells, CBP IP; format: cell-based; conditions: 10 μM
# T1 construct: endogenous in cells; host or cells: SW480 colorectal cancer cells
# Description: (§1) FIG. 4A and FIG. 4B, show, according to further non-limiting aspects of the present invention, a co-immunoprecipitation assay that was performed in SW480 cells as previously described (Emami K. et al. PNAS USA, 2004 Aug. 24; 101 (34): 12682-7) to further confirm that the positive control compound ICG-001 and [3+2]-117 selectively disrupt β-catenin binding to CBP (FIG. 4A), while enhancing the binding of β-catenin to p300 (FIG. 4B). Immunoprecipitation of β-catenin with CBP was inhibited by ICG-001 at 10 μM ([…]) and by [3+2]-117 at 500 nM. […] Quantification of the immunoblotting data based upon pixelation is shown below the immunoblots.
# [1] = tested on: β-catenin binding to p300; assay: Co-immunoprecipitation assay in SW480 cells, p300 IP; format: cell-based
# Description: as §1
# [2] = tested on: patients with HCV cirrhosis; conditions: intravenous, cited from earlier work
# [3] = tested on: memory CD4+ T-cells in SIVmac251-infected RMs; conditions: ART-suppressed SIVmac251-infected RMs; cited from earlier work
# [4] = tested on: bleomycin induced model of IPF in mice; assay: Bleomycin induced mouse model of idiopathic pulmonary fibrosis; format: in vivo; conditions: for overall survival and Ashcroft scoring versus historical control data for pirfenidone and nintedanib: from day 7 after bleomycin for 2 weeks; for extracellular collagen deposition (Masson's trichrome blue staining) compared to bleomycin saline treated historical control / survival: all treatment groups; for survival: to day 21; for Ashcroft score / Left lung weight / Post-caval lobe weight / Body weight: n = 3, mean +/− SD; for Body weight: day of sacrifice
# Excerpt: Bleomycin induced model of IPF.
# Results. […] FIGS. 8A-8E are as follows: historical bleomycin saline treated control (8A, “ID:103”); [3+2]-120A low dose (8B, “ID:102”); [3+2]-120A high dose (8C, “ID:201”); [[3+2]-120B low dose (8D, ID:302”); and [3+2]-120B high dose (8E, ID:401”).
# [5] = tested on: STAM mouse model of NASH-HCC; assay: STAM mouse model of NASH-HCC; format: in vivo, mice; conditions: after 4 weeks of treatment, vehicle 5 out of 8
# Description: In the vehicle control treated group only 5 out of 8 mice survived, whereas in the 3+2]-120A at 100 mg/kg/day (A-low) and 400 mg/kg/day (A-high), 7 out of 8 and 8 out of 8 mice survived respectively.
# [6] = tested on: NC/Nga mice atopic dermatitis model; assay: NC/Nga mouse model of atopic dermatitis; format: in vivo; conditions: for dermatitis scores compared to vehicle control / TEWL (transepidermal water loss) compared to vehicle control: topical once daily Day 0-13; for TEWL (transepidermal water loss) compared to vehicle control: day 14; for mean body weight versus Vehicle group: any day during the treatment period
# Description: NC/Nga mice (female) were obtained from CHARLES RIVER LABORATORIES JAPAN INC. Mice were randomized into […] of 8 mice on Day 0 based on their body weight and dermatitis score. Eight NC/Nga mice were topically administered test compound-containing [3+2]-121A (compound 34) ointment (in a volume of 100 mg) once daily from Day 0 to Day 13, or vehicle control (hydrophilic petrolatum).
# Representative test substance [3+2]-121A was formulated in hydrophilic petrolatum at low (100 uM) and high (500 uM) dosages (referred to in the study as [3+2]-121A and [3+2]-121B, respectively). 7-week-old female NC/Nga mice were used. The first induction of atopic dermatitis was performed three weeks before compound administration, for which the mice were shaved of hair on their backs and behind the ears with a clipper and a shaver. Then the mice had their hair removed completely with a depilatory agent (Epilat™, Kracie Home Products, Ltd.) before 100 mg of Biostir AD® ointment was applied to the shaved dorsal skin and both surfaces of each ear evenly with a plastic spoon. The second induction of atopic dermatitis was performed subsequently. The mice were shaved of hair on their backs and behind the ears, then 150 μl of 4% sodium lauryl sulfate solution was applied to the back and behind the ears with a plastic spoon. After this, it was dried with a hair dryer (cold air) and then left to dry naturally for about 1 to 2 hours. 100 mg of Biostir AD® ointment was applied to the shaved dorsal skin and both surfaces of each ear evenly with a plastic spoon. This procedure was repeated twice a week for three weeks. Twenty-four atopic dermatitis model mice were sorted into 3 groups of 8 mice based on their body weight and dermatitis severity score on the morning at Day 0. Vehicle control (hydrophilic petrolatum), [3+2]-121A or [3+2]-121B was administered topically in a volume of 100 mg once daily from Day 0 to Day 13. Body weight and food consumption were measured once a week at Day 0, 7 and 14. The severity of dermatitis was evaluated at Day 0, 3, 7, 10 and 14. The development of 1) erythema/hemorrhage, 2) scarring/dryness, 3) edema, 4) excoriation/erosion were scored as 0 (none), 1 (mild), 2 (moderate) and 3 (severe). The sum of the individual scores was taken as the dermatitis score. The TEWL was evaluated at Day 0 and at Day 14 after administration. Histological analyses were performed on lower neck dorsal skin and auricle that were fixed in 10% neutral formalin, embedded in paraffin and sectioned at 3-4 μm sections and stained with hematoxylin-eosin using Carrazzi's hematoxylin solution. For analysis of the skin area, bright field images of HE-stained sections were randomly captured using a digital camera (DS-Fi3; Nikon) at 2 and 4-fold magnification. Statistical analyses were performed using Prism Software 6 (GraphPad Software, USA). Statistical analyses were performed using Dunnett's Comparison Test. Comparisons were made between the following groups; Group 1 (Vehicle) vs. Group 2 ([3+2]-121A) and Group 3 ([3+2]-121B). P values <0.05 were considered statistically significant. Results were expressed as mean±SD.
# [7] = both dosage groups (100 and 400 mg/kg/day p.o.)
# [8] = high dosage group (400 mg/kg/day p.o.)
# T1 sequence (Q92793 whole entry): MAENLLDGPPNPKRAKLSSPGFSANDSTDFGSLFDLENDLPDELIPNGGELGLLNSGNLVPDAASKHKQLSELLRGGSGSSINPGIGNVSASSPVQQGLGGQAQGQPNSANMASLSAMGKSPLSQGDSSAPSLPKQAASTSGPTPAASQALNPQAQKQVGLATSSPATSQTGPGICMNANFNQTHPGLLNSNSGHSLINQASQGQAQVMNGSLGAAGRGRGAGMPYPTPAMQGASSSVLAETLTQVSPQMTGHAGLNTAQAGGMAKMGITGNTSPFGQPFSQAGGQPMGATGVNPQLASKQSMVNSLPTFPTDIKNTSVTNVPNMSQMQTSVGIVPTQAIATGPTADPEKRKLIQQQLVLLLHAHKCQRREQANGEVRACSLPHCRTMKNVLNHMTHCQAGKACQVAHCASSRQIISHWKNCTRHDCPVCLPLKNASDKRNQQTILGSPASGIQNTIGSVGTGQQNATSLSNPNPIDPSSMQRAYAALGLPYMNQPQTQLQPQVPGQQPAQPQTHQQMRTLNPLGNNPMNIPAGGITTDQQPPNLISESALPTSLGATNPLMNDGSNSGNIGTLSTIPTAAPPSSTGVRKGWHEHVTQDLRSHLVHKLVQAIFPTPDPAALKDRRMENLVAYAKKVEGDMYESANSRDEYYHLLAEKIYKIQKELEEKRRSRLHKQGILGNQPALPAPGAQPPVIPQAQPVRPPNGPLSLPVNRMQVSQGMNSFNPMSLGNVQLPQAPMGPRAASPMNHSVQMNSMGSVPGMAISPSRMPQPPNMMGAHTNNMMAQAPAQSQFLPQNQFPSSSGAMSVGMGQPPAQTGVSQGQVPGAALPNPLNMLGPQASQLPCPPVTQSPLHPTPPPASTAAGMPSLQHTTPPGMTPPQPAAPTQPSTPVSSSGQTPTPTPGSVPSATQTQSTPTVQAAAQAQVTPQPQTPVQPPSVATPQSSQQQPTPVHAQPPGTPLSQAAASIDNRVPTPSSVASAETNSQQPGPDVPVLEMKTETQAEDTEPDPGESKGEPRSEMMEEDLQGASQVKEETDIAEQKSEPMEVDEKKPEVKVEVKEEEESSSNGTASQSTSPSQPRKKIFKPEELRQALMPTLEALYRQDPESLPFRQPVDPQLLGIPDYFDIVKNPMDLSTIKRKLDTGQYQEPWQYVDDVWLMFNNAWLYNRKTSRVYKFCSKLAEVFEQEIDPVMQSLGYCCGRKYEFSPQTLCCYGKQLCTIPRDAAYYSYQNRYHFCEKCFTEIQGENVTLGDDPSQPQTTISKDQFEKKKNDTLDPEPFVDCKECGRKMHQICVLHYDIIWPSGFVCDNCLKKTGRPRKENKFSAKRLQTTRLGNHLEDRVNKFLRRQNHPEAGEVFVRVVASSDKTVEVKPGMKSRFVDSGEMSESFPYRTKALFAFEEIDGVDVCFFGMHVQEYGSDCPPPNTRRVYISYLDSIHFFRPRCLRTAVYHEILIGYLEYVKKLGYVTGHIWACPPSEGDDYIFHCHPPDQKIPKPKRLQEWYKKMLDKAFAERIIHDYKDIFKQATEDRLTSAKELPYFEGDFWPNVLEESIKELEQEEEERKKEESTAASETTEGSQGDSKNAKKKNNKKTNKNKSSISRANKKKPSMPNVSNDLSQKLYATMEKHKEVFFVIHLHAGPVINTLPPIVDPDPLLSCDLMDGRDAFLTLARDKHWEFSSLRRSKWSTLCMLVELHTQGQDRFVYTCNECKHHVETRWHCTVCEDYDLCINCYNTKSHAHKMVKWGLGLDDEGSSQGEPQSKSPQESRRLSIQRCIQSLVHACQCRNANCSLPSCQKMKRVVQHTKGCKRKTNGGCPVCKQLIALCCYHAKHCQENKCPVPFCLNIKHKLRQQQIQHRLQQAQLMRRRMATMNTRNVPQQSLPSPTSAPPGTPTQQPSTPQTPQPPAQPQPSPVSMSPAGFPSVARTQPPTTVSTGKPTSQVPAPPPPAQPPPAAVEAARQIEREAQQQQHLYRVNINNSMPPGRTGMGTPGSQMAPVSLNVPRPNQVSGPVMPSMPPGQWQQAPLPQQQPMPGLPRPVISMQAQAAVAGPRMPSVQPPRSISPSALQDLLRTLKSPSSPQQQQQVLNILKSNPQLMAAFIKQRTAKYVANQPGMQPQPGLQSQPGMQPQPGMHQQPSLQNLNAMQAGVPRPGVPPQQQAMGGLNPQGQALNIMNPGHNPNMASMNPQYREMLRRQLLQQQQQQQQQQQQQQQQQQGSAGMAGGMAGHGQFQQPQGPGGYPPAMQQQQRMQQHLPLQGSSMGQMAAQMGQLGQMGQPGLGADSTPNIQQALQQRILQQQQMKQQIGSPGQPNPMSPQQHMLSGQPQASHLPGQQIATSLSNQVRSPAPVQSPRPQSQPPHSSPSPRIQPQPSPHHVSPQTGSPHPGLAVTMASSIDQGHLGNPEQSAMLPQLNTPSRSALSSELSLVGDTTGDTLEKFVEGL
smiles,measurement,setting,value
O=C1[C@H](Cc2ccc(O)cc2)N2C(=O)CCN(C(=O)NCc3ccccc3)[C@H]2CN1Cc1cccc2ccccc12 [ICG-001],Immunoprecipitation of β-catenin with CBP,β-catenin binding to CBP,inhibited
same,minimal interaction between β-catenin and p300,[1],not blocked
same,amount of β-catenin co-immunoprecipitated with p300,[1]; 10 μM,slightly increases
C[C@H]1[C@H]2N(C(=O)CN(C)N2C(=O)NCc2ccccc2)[C@@H](Cc2ccc(OP(=O)(O)O)cc2)C(=O)N1Cc1cccc2cccnc12 [PRI-724],safety,[2]; 10 and 40 mg/m^2/day for 12 weeks (1 week on and 1 week off),safe
same,plasma exposure of the drug,[2]; 10 and 40 mg/m^2/day for 12 weeks,dose-dependent
same,liver histology and Child Pugh scores,"[2]; 10 and 40 mg/m^2/day for 12 weeks, in several patients",improvement
same,proliferation of T memory stem cells (SCM) and central memory T-cells (CM),[3],decrease
CS(=O)(=O)O.O=C1[C@H](Cc2ccc(O)cc2)N2C(=O)CN(Cc3cc(-c4ccccn4)no3)N(C(=O)NCc3ccccc3)[C@H]2CN1Cc1cccc2ncccc12 [[3+2]-120A],overall survival and Ashcroft scoring versus historical control data for pirfenidone and nintedanib,[4]; 100 mg/kg/day p.o.,compared favorably
same,overall survival and Ashcroft scoring versus historical control data for pirfenidone and nintedanib,[4]; 400 mg/kg/day p.o.,compared favorably
same,extracellular collagen deposition (Masson's trichrome blue staining) compared to bleomycin saline treated historical control,[4],significant reduction
same,survival,[4],all mice survived
same,Ashcroft scores,[4]; [7],significant decrease
same,lung weights,[4]; [7],significant decrease
same,weight gain,[4]; [7],significant increase
same,Ashcroft score,[4]; high dose (400 mg/kg/day p.o.),2.5 +/− 2.0
same,Left lung weight,[4]; high dose (400 mg/kg/day p.o.),66 ± 33 mg
same,Post-caval lobe weight,[4]; high dose (400 mg/kg/day p.o.),25 ± 18 mg
same,Body weight,[4]; high dose (400 mg/kg/day p.o.),16.9 ± 3.8 g
same,Ashcroft score,[4]; low dose p.o.,2.2 +/− 1.7
same,Left lung weight,[4]; low dose p.o.,65 ± 19 mg
same,Post-caval lobe weight,[4]; low dose p.o.,21 ± 9 mg
same,Body weight,[4]; low dose p.o.,18.2 ± 0.7 g
same,mice survived,[5]; 100 mg/kg/day p.o. (A-low),7 out of 8
same,mice survived,[5]; 400 mg/kg/day p.o. (A-high),8 out of 8
"CCOC(=O)CNC(=O)CNC(=O)Oc1ccc(C[C@H]2C(=O)N(Cc3cccc4ncccc34)C[C@H]3N2C(=O)CN(Cc2cc(-c4ccccn4)no2)N3C(=O)NCc2ccccc2)cc1 [[3+2]-120B, ethyl 2-(2-((4-(((6S,9aS)-1-(benzylcarbamoyl)-4,7-dioxo-2-((3-(pyridin-2-yl)isoxazol-5-yl)methyl)-8-(quinolin-5-ylmethyl)octahydro-1H-pyrazino[2,1-c][1,2,4]triazin-6-yl)methyl)phenoxy)carbonylamino)acetamido)acetate]",overall survival and Ashcroft scoring versus historical control data for pirfenidone and nintedanib,[4]; 400 mg/kg/day p.o.,compared favorably
same,extracellular collagen deposition (Masson's trichrome blue staining) compared to bleomycin saline treated historical control,[4],significant reduction
same,survival,[4],all mice survived
same,Ashcroft scores,[4]; [8],significant decrease
same,lung weights,[4]; [8],significant decrease
same,weight gain,[4]; [8],significant increase
same,Ashcroft score,[4]; high dose (400 mg/kg/day p.o.),2.1 +/− 0.7
same,Left lung weight,[4]; high dose (400 mg/kg/day p.o.),65 ± 13 mg
same,Post-caval lobe weight,[4]; high dose (400 mg/kg/day p.o.),21 ± 6 mg
same,Body weight,[4]; high dose (400 mg/kg/day p.o.),19.5 ± 1.6 g
same,Ashcroft score,[4]; low dose p.o.,3.9 +/− 1.4
same,Left lung weight,[4]; low dose p.o.,77 ± 15 mg
same,Post-caval lobe weight,[4]; low dose p.o.,39 ± 17 mg
same,Body weight,[4]; low dose p.o.,15.1 ± 3.8 g
CCCCCCCCCCCC(=O)Oc1ccc(C[C@H]2C(=O)N(Cc3cccc4ccccc34)C[C@H]3N2C(=O)CN(Cc2cc(-c4ccccc4)no2)N3C(=O)NCc2ccccc2)cc1 [[3+2]-121A],dermatitis scores compared to vehicle control,[6]; high (500 uM) ointment,significantly decreased
same,TEWL (transepidermal water loss) compared to vehicle control,[6]; high (500 uM) ointment,significantly decreased
same,food consumption per mouse versus Vehicle group,[6]; low (100 uM),no significant differences
same,inflammation and inflammatory cell influx (histological analysis),[6]; low (100 uM),significant reduction
same,dermatitis scores compared to vehicle control,[6]; low (100 uM) ointment,significantly decreased
same,TEWL (transepidermal water loss) compared to vehicle control,[6]; low (100 uM) ointment,significantly decreased; also recorded: significant decrease
same,dermatitis severity score on the back compared with Vehicle group,"[6]; low (100 uM), Days 10 and 14",significant decrease
same,mean body weight versus Vehicle group,[6]; low (100 uM),no significant differences
same,total dermatitis severity score compared with Vehicle control group,"[6]; low (100 uM), primarily on the back, Days 10 and 14",significant decrease
CCCCCCCCCCCC(=O)Oc1ccc(C[C@H]2C(=O)N(Cc3cccc4ccccc34)C[C@H]3N2C(=O)CN(Cc2cc(-c4ccccc4)no2)N3C(=O)NCc2ccccc2)cc1 [[3+2]-121B],food consumption per mouse versus Vehicle group,[6]; high (500 uM),no significant differences
same,inflammation and inflammatory cell influx (histological analysis),[6]; high (500 uM),significant reduction
same,TEWL (transepidermal water loss) compared to vehicle control,"[6]; high (500 uM) ointment, listed as 121B",significant decrease
same,mean body weight versus Vehicle group,[6]; high (500 uM),no significant differences
